Experimental data taken from ChEMBL document CHEMBL4354789, “Recent advances in the discovery of indoleamine 2,3-dioxygenase 1 (IDO1) inhibitors” (Medchemcomm, 2019).

What was measured:
[1] = target: T1, Indoleamine 2,3-dioxygenase 1 (Homo sapiens, UniProt P14902); assay: Inhibition of recombinant human IDO1 expressed in COS1 cells by colorimetric method; type: cell-based
[2] = target: T1, Indoleamine 2,3-dioxygenase 1; assay: Inhibition of recombinant human His6-tagged IDO1 using L-tryptophan as substrate preincubated for 10 mins and measured after 30 mins
[3] = test system: Plasmodium falciparum; assay: Antimalarial activity against chloroquine-sensitive Plasmodium falciparum 3D7 infected in erythrocytes assessed as reduction in parasite growth preincubated for 48 hrs followed by addition of [3H]Hypoxanthine and measured after 24 hrs by radiometric method; type: functional, organism-based
[4] = target: T1, Indoleamine 2,3-dioxygenase 1; assay: Inhibition of recombinant human IDO1 expressed in Escherichia coli assessed as reduction in formation of kynurenine using L-tryptophan as substrate by methylene blue staining based assay
[5] = target: T1, Indoleamine 2,3-dioxygenase 1; assay: Inhibition of IDO1 in HEK293 cells assessed as reduction in L-kynurenine formation incubated for 48 hrs using L-tryptophan as substrate; type: cell-based
[6] = target: T1, Indoleamine 2,3-dioxygenase 1; assay: Inhibition of recombinant human IDO1 using L-tryptophan as substrate preincubated for 15 mins followed by substrate addition by methylene blue staining based spectrometric method
[7] = target: T1, Indoleamine 2,3-dioxygenase 1; assay: Inhibition of IDO1 in IFNgamma-indced human HeLa cells incubated for 48 hrs using L-tryptophan as substrate by colorimetric analysis; type: cell-based
[8] = target: T1, Indoleamine 2,3-dioxygenase 1; assay: Inhibition of recombinant human His6-tagged IDO1 expressed in Escherichia coli BL21DE3pLysS cells assessed as reduction in N-formyl-kynurenine level using L-tryptophan as substrate incubated for 60 mins
[9] = target: T1, Indoleamine 2,3-dioxygenase 1; assay: Inhibition of human IDO1 expressed in COS1 cells assessed as reduction in N-formyl-kynurenine level incubated for 16 hrs; type: cell-based
[10] = target: T2, Indoleamine 2,3-dioxygenase 1 (Mus musculus, UniProt P28776); assay: Inhibition of mouse IDO1 expressed in COS1 cells assessed as reduction in N-formyl-kynurenine level incubated for 16 hrs; type: cell-based
[11] = Tmax in human cancer patient at 2000 mg bid for 28 days by LC-MS method; type: ADME; conditions: in vivo
[12] = Half life in human cancer patient at 2000 mg bid for 28 days by LC-MS method; type: ADME; conditions: in vivo
[13] = target: T1, Indoleamine 2,3-dioxygenase 1; assay: Inhibition of recombinant human IDO1 expressed in Escherichia coli assessed as reduction in formation of kynurenine using L-tryptophan as substrate measured after 30 mins
[14] = target: T1, Indoleamine 2,3-dioxygenase 1; assay: Inhibition of IDO1 (unknown origin)
[15] = test system: Homo sapiens; assay: In vivo inhibition of IDO1 in human patient assessed as reduction in Serum kynurenine level at 25 to 200 mg, po qd for 2 weeks co-treated with nivo-lumab relative to control; type: functional
[16] = test system: Homo sapiens; assay: In vivo inhibition of IDO1 in human patient assessed as reduction in Serum kynurenine level at 100 to 200 mg, po qd for 2 weeks co-treated with nivo-lumab relative to control; type: functional
[17] = target: T2, Indoleamine 2,3-dioxygenase 1; assay: Inhibition of mouse IDO1 expressed in Escherichia coli Rosetta (DE3) cells
[18] = test system: Jurkat; assay: Cytotoxicity against human Jurkat cells assessed as growth inhibition after 72 hrs by MTT assay; type: functional
[19] = test system: A549; assay: Cytotoxicity against human A549 cells assessed as growth inhibition after 72 hrs by MTT assay; type: functional; conditions: A549, 72 h
[20] = target: T1, Indoleamine 2,3-dioxygenase 1; assay: Inhibition of recombinant human N-terminal His-tagged IDO1 expressed in Escherichia coli using L-tryptophan as substrate incubated for 60 mins by HPLC analysis
[21] = target: T1, Indoleamine 2,3-dioxygenase 1; assay: Inhibition of IDO1 in LPS-induced human THP1 cells
[22] = Antitumour activity in mouse B16 cells pretreated with compound followed by tumour implantation assessed as reduction in tumour size after 4 days relative to control; design: scale not given: the % may be the effect or the level left

T1 sequence (P14902 whole entry): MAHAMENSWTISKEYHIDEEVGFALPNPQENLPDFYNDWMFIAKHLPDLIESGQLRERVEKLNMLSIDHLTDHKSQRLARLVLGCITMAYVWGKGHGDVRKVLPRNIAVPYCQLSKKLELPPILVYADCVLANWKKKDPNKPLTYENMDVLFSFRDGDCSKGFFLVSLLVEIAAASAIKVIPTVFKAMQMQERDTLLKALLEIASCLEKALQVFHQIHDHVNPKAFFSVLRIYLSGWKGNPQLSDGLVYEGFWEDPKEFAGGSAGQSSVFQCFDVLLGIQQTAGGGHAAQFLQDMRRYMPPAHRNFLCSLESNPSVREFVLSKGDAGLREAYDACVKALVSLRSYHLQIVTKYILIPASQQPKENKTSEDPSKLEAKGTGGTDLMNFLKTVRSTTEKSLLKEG
T2 sequence (P28776 whole entry): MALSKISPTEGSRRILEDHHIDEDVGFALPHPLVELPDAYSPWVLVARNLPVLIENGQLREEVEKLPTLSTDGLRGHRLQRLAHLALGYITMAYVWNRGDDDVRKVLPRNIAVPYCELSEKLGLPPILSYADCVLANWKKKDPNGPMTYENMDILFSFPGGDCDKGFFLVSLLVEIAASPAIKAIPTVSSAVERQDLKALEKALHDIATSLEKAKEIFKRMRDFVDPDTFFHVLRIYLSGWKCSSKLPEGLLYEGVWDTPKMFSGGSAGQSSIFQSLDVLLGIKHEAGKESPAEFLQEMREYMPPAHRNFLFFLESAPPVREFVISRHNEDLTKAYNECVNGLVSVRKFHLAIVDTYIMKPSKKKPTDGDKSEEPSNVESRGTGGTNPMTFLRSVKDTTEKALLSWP

SMILES: CN1C(=O)C(Cc2c[nH]c3ccccc23)NC1=S (configuration not stated) [NECROSTATIN]
- EC50 [1]: 12.8 µM

SMILES: COc1nsc2c1C(=O)c1c(O)cccc1C2=O
- IC50 [2]: 0.0803 µM

SMILES: NOCc1cccc(Cl)c1
- IC50 [3]: 0.109 µM

SMILES: C[C@@]12CC[C@H](O)CC1=C(O)C(=O)c1cc3c(cc12)C(=O)C1=C(C3=O)S(=O)(=O)CCN1
- IC50 [4]: 4 µM

SMILES: Clc1ccc(Nc2cn[nH]n2)cc1
- IC50 [5]: 0.067 µM

SMILES: CCOc1cc(C(=O)NC(=S)Nc2c(O)ccc3ccccc23)cc(OCC)c1OCC
- IC50 [6]: 18 µM
- IC50 [7]: 18 µM

SMILES: CSC(=S)NCc1c[nH]c2ccc(Br)cc12
- Ki [8]: 24.5 µM
- EC50 [9]: 24 µM
- EC50 [10]: 26.1 µM

SMILES: Cn1cc(C[C@H](N)C(=O)O)c2ccccc21 (racemic) [(L)-1-METHYLTRYPTOPHAN]
- Tmax [11]: 2.9 h
- half-life [12]: 10.5 h

SMILES: COC1=CC(=O)c2c(oc(C)c2CO)C1=O
- IC50 [13]: 0.24 µM

SMILES: COc1cc(OC(=O)c2c(C)c(O)c(OC(=O)c3c(C)cc(O)c(C)c3O)c(C)c2OC)c(C)c(C)c1C(=O)O
- IC50 [14]: 14.5 µM

SMILES: C[C@@H](C(=O)Nc1ccc(Cl)cc1)[C@H]1CC[C@@H](c2ccnc3ccc(F)cc32)CC1
- inhibition (INH) [15]: >45%
- inhibition (INH) [16]: >60%

SMILES: Nc1ccc2cc3cccc[n+]3cc2c1
- IC50 [17]: 0.164 µM
- GI50 [18]: 62 µM
- GI50 [19]: 86 µM

SMILES: CC1(C)CCC[C@]2(C)[C@H]3CCC(C=O)C[C@H](O)[C@]3(C=O)CC[C@@H]12 (some centres not stated)
- IC50 [20]: 7.7 µM
- IC50 [21]: 0.045 µM

SMILES: O[C@H](C[C@H]1c2c(F)cccc2-c2cncn21)[C@H]1CC[C@H](O)CC1 [NAVOXIMOD]
- Activity [22]: 95%
